# Reference: ChEMBL document CHEMBL4800727 (2021)
# Calls of active or inactive are those of the source. The rule behind the calls is not given here.
# Experiments:
# [1] = target: cAMP and cAMP-inhibited cGMP 3',5'-cyclic phosphodiesterase 10A (Homo sapiens, UniProt Q9Y233); experiment: SPA with human PDE10A
# [2] = target: Inhibitor of nuclear factor kappa-B kinase subunit alpha (Homo sapiens) (UniProt O15111); experiment: conserved helix-loop-helix ubiquitous kinase Millipore kinase panel; conditions: Compound concentration 10.0 uM
# [3] = target: Death-associated protein kinase 1 (Homo sapiens) (UniProt P53355); experiment: death-associated protein kinase 1 Millipore kinase panel; conditions: Compound concentration 10.0 uM
# [4] = target: Death-associated protein kinase 2 (Homo sapiens) (UniProt Q9UIK4); experiment: death-associated protein kinase 2 Millipore kinase panel; conditions: Compound concentration 10.0 uM
# Chain of Death-associated protein kinase 2 (Homo sapiens) (Q9UIK4 whole entry, looked up): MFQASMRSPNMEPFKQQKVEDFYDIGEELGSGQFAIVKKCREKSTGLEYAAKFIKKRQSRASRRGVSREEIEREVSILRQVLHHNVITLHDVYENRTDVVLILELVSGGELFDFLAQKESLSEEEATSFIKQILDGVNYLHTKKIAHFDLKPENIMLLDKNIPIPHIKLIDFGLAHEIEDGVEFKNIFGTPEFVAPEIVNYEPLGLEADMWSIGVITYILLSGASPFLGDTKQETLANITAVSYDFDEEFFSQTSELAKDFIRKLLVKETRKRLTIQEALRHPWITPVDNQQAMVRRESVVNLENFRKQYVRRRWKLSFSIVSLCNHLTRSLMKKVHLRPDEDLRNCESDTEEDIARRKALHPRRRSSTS
# [5] = target: Serine/threonine-protein kinase DCLK2 (Homo sapiens) (UniProt Q8N568); experiment: doublecortin-like kinase 2 Millipore kinase panel; conditions: Compound concentration 10.0 uM
# [6] = target: Ephrin type-A receptor 2 (Homo sapiens) (UniProt P29317); experiment: EPH receptor A2 Millipore kinase panel; conditions: Compound concentration 10.0 uM
# [7] = target: Ephrin type-A receptor 3 (Homo sapiens) (UniProt P29320); experiment: EPH receptor A3 Millipore kinase panel; conditions: Compound concentration 10.0 uM
# [8] = target: Fibroblast growth factor receptor 1 (Homo sapiens) (UniProt P11362); experiment: fibroblast growth factor receptor 1 Millipore kinase panel; conditions: Compound concentration 10.0 uM
# [9] = target: Vascular endothelial growth factor receptor 1 (Homo sapiens) (UniProt P17948); experiment: fms-related tyrosine kinase 1 Millipore kinase panel; conditions: Compound concentration 10.0 uM
# [10] = target: Receptor-type tyrosine-protein kinase FLT3 (Homo sapiens) (UniProt P36888); experiment: fms-related tyrosine kinase 3 Millipore kinase panel; conditions: Compound concentration 10.0 uM
# [11] = target: Interleukin-1 receptor-associated kinase 1 (Homo sapiens) (UniProt P51617); experiment: interleukin-1 receptor-associated kinase 1 Millipore kinase panel; conditions: Compound concentration 10.0 uM
# [12] = target: LIM domain kinase 1 (Homo sapiens) (UniProt P53667); experiment: LIM domain kinase 1 Millipore kinase panel; conditions: Compound concentration 10.0 uM
# [13] = target: mTOR/FKBP12A/FKBP12B (Homo sapiens) (UniProt P62942+P68106+P42345); experiment: mechanistic target of rapamycin / FKBP12 Millipore kinase panel; assay type: protein-complex assay; conditions: Compound concentration 10.0 uM
# [14] = target: Mitogen-activated protein kinase 1 (Homo sapiens) (UniProt P28482); experiment: mitogen-activated protein kinase 1 Millipore kinase panel; conditions: Compound concentration 10.0 uM
# [15] = target: Mitogen-activated protein kinase 12 (Homo sapiens) (UniProt P53778); experiment: mitogen-activated protein kinase 12 Millipore kinase panel; conditions: Compound concentration 10.0 uM
# Chain of Mitogen-activated protein kinase 12 (Homo sapiens) (P53778 whole entry): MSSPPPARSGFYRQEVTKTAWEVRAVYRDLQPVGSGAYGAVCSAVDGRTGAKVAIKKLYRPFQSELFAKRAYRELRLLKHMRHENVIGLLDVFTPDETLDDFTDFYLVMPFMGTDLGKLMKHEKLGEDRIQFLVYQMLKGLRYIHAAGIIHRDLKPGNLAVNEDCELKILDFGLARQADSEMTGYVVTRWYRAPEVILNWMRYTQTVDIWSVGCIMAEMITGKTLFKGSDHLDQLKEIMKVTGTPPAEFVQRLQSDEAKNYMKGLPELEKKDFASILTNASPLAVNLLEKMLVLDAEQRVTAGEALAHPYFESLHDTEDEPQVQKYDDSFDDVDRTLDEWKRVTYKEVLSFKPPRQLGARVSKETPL
# [16] = target: Mitogen-activated protein kinase 9 (Homo sapiens) (UniProt P45984); experiment: mitogen-activated protein kinase 9 Millipore kinase panel; conditions: Compound concentration 10.0 uM
# [17] = target: Mitogen-activated protein kinase kinase kinase 5 (Homo sapiens) (UniProt Q99683); experiment: mitogen-activated protein kinase kinase kinase 5 Millipore kinase panel; conditions: Compound concentration 10.0 uM
# [18] = target: Protein kinase C alpha type (Homo sapiens) (UniProt P17252); experiment: protein kinase C, alpha Millipore kinase panel; conditions: Compound concentration 10.0 uM
# [19] = target: Protein kinase C iota type (Homo sapiens) (UniProt P41743); experiment: protein kinase C, iota Millipore kinase panel; conditions: Compound concentration 10.0 uM
# [20] = target: Serine/threonine-protein kinase D1 (Homo sapiens) (UniProt Q15139); experiment: protein kinase D1 Millipore kinase panel; conditions: Compound concentration 10.0 uM
# Chain of Serine/threonine-protein kinase D1 (Homo sapiens) (Q15139 whole entry): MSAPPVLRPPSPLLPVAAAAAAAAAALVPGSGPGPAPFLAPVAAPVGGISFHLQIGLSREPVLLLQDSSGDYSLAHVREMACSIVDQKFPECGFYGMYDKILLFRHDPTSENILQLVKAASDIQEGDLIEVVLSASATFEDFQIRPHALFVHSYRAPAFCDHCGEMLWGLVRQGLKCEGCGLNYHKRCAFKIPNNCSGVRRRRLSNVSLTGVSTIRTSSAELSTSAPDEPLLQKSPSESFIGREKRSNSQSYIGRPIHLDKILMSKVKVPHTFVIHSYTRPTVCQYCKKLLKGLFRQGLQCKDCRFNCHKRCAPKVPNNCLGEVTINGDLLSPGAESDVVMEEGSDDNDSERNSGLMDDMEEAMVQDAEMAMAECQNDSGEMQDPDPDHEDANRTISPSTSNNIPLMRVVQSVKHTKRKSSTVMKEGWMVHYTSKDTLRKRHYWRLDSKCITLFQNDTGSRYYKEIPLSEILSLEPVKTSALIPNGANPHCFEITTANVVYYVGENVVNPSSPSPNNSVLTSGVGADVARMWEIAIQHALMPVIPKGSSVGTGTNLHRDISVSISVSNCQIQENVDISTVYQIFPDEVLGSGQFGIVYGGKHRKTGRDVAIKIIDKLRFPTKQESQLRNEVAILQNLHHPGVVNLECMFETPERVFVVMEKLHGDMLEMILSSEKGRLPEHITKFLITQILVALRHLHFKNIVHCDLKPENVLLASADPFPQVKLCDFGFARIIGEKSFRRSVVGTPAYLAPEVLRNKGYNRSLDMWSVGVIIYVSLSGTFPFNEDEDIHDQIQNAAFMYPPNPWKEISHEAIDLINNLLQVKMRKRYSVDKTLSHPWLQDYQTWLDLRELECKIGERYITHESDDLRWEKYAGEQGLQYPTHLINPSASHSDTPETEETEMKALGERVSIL
# [21] = target: Rho-associated protein kinase 2 (Homo sapiens) (UniProt O75116); experiment: Rho-associated, coiled-coil containing protein kinase 2 Millipore kinase panel; conditions: Compound concentration 10.0 uM
# [22] = target: Angiopoietin-1 receptor (Homo sapiens) (UniProt Q02763); experiment: TEK tyrosine kinase, endothelial Millipore kinase panel; conditions: Compound concentration 10.0 uM
# [23] = target: Activated CDC42 kinase 1 (Homo sapiens) (UniProt Q07912); experiment: tyrosine kinase, non-receptor, 2 Millipore kinase panel; conditions: Compound concentration 10.0 uM
# [24] = target: Mast/stem cell growth factor receptor Kit (Homo sapiens) (UniProt P10721); experiment: v-kit Hardy-Zuckerman 4 feline sarcoma viral oncogene homolog Millipore kinase panel; conditions: Compound concentration 10.0 uM
# [25] = target: Tyrosine-protein kinase Yes (Homo sapiens) (UniProt P07947); experiment: v-yes-1 Yamaguchi sarcoma viral oncogene homolog 1 Millipore kinase panel; conditions: Compound concentration 10.0 uM
# Chain of Tyrosine-protein kinase Yes (Homo sapiens) (P07947 2-543 limits assumed): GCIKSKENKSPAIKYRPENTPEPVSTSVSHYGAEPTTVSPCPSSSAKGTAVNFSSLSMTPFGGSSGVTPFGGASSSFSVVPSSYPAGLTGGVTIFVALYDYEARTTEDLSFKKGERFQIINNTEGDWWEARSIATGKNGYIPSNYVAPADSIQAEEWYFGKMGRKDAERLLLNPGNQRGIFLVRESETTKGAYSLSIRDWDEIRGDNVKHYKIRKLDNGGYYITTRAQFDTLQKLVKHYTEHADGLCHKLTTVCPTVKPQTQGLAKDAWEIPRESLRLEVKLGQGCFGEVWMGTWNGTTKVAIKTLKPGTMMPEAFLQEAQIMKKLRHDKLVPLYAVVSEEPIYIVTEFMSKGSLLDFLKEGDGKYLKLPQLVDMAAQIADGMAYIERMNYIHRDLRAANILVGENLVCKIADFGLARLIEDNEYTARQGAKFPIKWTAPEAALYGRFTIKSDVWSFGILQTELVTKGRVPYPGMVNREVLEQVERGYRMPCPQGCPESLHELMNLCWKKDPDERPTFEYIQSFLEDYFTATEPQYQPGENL
# [26] = target: Serine/threonine-protein kinase WNK2 (Homo sapiens) (UniProt Q9Y3S1); experiment: WNK lysine deficient protein kinase 2 Millipore kinase panel; conditions: Compound concentration 10.0 uM
# [27] = target: T1, cGMP-inhibited 3',5'-cyclic phosphodiesterase 3A (Homo sapiens, UniProt Q14432); experiment: hPDE3A PDE scan
# T1 sequence (Q14432 whole entry): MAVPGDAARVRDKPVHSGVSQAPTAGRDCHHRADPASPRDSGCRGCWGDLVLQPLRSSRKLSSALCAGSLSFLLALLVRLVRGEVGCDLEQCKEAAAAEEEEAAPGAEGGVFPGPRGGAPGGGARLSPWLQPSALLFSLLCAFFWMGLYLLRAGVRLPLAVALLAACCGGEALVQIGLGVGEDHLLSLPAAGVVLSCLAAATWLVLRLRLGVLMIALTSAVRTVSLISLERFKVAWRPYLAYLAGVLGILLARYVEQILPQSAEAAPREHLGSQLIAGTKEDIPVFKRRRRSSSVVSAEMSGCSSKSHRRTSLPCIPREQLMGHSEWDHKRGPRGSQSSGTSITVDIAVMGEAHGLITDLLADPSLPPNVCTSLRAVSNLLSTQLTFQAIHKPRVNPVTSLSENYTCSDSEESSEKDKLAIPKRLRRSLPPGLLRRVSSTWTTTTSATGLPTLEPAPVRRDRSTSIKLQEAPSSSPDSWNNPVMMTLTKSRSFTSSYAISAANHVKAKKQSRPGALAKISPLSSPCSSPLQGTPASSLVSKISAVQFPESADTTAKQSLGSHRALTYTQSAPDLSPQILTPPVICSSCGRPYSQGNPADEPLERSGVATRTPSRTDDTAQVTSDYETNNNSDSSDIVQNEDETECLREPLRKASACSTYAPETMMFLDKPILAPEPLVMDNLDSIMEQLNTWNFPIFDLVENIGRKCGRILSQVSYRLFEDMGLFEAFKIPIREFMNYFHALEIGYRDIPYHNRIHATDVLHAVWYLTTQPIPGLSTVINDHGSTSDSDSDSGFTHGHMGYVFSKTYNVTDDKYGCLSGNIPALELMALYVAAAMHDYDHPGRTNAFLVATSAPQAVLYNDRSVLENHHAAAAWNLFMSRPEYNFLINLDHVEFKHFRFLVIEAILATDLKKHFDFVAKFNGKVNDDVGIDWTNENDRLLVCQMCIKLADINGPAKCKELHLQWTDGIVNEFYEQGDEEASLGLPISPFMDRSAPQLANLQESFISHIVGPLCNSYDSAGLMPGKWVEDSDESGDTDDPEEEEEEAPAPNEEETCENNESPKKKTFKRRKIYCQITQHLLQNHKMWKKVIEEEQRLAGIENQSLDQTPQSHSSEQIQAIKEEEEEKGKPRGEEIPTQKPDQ
# [28] = cML1 Cerep panel; conditions: Compound concentration 10.0 uM
# [29] = target: Gastrin/cholecystokinin type B receptor (Homo sapiens) (UniProt P32239); experiment: hCCK2 Cerep panel; conditions: Compound concentration 10.0 uM
# [30] = target: Glutamate NMDA receptor (Rattus norvegicus) (UniProt P35439+Q00959+Q00960+Q00961+Q62645+Q8VHN2+Q9R1M7); experiment: rNMDA Cerep panel; assay type: protein-complex assay; conditions: Compound concentration 10.0 uM
# [31] = target: Vasopressin V1a receptor (Homo sapiens) (UniProt P37288); experiment: hV1a Cerep panel; conditions: Compound concentration 10.0 uM
# Rattus norvegicus = species on record: Rattus norvegicus; experiment: rK_ATP potassium channel Cerep panel; conditions: Compound concentration 10.0 uM
# [32] = target: Sodium-dependent noradrenaline transporter (Homo sapiens) (UniProt P23975); experiment: hNET Cerep panel; conditions: Compound concentration 10.0 uM
# Chain of Sodium-dependent noradrenaline transporter (Homo sapiens) (P23975 whole entry): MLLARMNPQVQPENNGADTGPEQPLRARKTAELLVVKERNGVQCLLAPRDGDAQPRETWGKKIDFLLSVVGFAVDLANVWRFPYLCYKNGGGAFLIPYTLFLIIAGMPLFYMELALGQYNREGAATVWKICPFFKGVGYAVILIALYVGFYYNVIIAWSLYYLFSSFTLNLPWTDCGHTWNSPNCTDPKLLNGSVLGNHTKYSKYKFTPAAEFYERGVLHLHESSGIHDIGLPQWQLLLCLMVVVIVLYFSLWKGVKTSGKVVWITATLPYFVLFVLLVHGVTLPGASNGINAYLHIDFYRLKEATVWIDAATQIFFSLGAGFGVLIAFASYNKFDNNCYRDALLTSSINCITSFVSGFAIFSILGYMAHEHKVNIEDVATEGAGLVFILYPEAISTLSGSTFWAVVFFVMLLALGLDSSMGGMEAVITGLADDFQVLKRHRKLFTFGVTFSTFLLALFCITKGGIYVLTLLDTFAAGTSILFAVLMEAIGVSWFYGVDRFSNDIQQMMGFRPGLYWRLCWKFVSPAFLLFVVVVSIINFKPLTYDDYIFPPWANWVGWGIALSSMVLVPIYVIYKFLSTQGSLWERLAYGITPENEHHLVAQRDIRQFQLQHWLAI
# [33] = target: Acetylcholinesterase (Homo sapiens) (UniProt P22303); experiment: hACHE Cerep panel; conditions: Compound concentration 10.0 uM
# [34] = target: T1, cGMP-inhibited 3',5'-cyclic phosphodiesterase 3A; experiment: hPDE3A Cerep panel; conditions: Compound concentration 10.0 uM
# [35] = target: cAMP and cAMP-inhibited cGMP 3',5'-cyclic phosphodiesterase 10A (Mus musculus) (UniProt Q8CA95)
# Chain of cAMP and cAMP-inhibited cGMP 3',5'-cyclic phosphodiesterase 10A (Q9Y233 whole entry): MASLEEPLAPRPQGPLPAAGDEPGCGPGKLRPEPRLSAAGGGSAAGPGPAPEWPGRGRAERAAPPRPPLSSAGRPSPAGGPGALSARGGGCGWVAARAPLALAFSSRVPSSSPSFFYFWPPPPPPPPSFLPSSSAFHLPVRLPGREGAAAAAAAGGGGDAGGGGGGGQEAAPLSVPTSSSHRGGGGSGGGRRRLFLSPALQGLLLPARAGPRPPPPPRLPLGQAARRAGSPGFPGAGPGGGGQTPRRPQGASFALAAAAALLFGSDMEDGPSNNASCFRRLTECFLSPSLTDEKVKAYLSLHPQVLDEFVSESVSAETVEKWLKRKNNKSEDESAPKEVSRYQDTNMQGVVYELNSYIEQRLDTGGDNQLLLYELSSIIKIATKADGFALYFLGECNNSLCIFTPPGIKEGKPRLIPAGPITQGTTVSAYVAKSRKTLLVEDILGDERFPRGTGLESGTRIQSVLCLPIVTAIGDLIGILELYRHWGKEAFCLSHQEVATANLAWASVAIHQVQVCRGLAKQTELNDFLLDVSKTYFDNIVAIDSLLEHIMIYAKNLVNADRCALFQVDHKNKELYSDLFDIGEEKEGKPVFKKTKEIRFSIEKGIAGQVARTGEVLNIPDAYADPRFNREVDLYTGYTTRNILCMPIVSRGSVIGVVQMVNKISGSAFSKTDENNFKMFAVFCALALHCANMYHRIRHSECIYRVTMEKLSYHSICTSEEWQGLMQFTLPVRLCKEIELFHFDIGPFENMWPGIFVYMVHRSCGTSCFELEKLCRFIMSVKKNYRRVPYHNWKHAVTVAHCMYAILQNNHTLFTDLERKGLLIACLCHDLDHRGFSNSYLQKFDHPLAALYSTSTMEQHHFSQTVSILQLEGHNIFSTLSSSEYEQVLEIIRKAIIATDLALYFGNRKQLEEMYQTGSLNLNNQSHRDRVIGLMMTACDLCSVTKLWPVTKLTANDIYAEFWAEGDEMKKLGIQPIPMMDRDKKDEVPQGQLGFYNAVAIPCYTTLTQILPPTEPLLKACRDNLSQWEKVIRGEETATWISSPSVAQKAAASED
smiles,measurement,setting,value
COCCc1ccc(-c2c(C)nc3c(N4CCOCC4)ccnn23)cn1 [JNJ-42396302],Ki,[1],0.013 µM (active)
same,inhibition,[2],-3%
same,inhibition,[3],-2%
same,inhibition,[4],-1%
same,inhibition,[5],-6%
same,inhibition,[6],7%
same,inhibition,[7],4%
same,inhibition,[8],8%
same,inhibition,[9],-5%
same,inhibition,[10],6%
same,inhibition,[11],-3%
same,inhibition,[12],-3%
same,inhibition,[13],9%
same,inhibition,[14],1%
same,inhibition,[15],2%
same,inhibition,[16],0%
same,inhibition,[17],-2%
same,inhibition,[18],15%
same,inhibition,[19],3%
same,inhibition,[20],-5%
same,inhibition,[21],-3%
same,inhibition,[22],1%
same,inhibition,[23],0%
same,inhibition,[24],4%
same,inhibition,[25],0%
same,inhibition,[26],-1%
same,Ki,[27],49 µM
same,effect,[28],-4.5%
same,effect,[29],-5.55%
same,effect,[30],-9.45%
same,effect,[31],8.9%
same,effect,Rattus norvegicus,2.9%
same,effect,[32],6.7%
same,effect,[33],0.2%
same,effect,[34],6%
same,Increase in cAMP,[35],2.3 fold
